Holding throughout (assay type): biochemical
One experiment addresses T1, Human Mer (Homo sapiens, UniProt Q12866).
T1 construct: Human Mer (residues R557-E882 with H628Q and R794A, 0.7 nM); purchased Eurofins Pharma Discovery Services UK Limited (KinaseProfiler service)
T1 sequence (Q12866 557-882 limits assumed): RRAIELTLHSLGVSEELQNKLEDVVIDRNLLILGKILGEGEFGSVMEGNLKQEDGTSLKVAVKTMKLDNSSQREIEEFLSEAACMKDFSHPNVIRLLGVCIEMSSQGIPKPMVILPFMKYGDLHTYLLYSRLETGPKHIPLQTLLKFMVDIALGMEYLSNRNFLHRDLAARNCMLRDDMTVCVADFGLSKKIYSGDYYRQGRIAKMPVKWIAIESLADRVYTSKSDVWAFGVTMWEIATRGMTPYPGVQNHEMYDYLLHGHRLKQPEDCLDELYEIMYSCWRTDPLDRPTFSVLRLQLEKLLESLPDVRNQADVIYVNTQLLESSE
Description: Human Mer kinase assay (33P radiometric / HTRF KinEase). The following applies: protocols of Examples C-1 and/or C-2. As to the method:
(§1) Kinase activity and compound inhibition were investigated using the ^33P-Phosphoryl transfer radiometric kinase assay, performed using the KinaseProfiler™ service of Eurofins Pharma Discovery Services UK Limited. Dose-response experiments were performed using nine compound concentrations in a 96-well microtiter plate. For each assay, all compounds were prepared to a 50× final assay concentration (50 μM) in 100% DMSO, then diluted in a half-log series, with the final top concentration at 1 μM. This working stock of the compound was added to the assay well as the first component in the reaction, followed by the remaining components as detailed in the following assay protocols below. The positive control wells (100% kinase activity) contain all components of the reaction including 2% DMSO (control for solvent effects), except the compound of interest. Blank wells contain all components of the reaction, with the reference inhibitor, staurosporine. This reference compound was used to abolish kinase activity and generated the 0% kinase activity base-line. IC50 values were calculated by nonlinear regression analysis using the sigmoidal dose-response (variable slope) curve fit on XLFit version 5.3 (ID Business Solutions).
(§2) Kinase activity and compound inhibition were also investigated using the HTRF® KinEase assay (Cisbio Cat #62TKOPEB) per manufacturer's instructions. In short, compounds were delivered in 300 nL volumes at 10 different concentrations in DMSO (3% final) to empty 384-well assay plates (Corning cat #3824). A mixture of enzyme, 1 μM biotinylated peptide substrate, and buffer in 10 μL volume was added. The assay was started upon the addition of ATP (at Km). The 10 μL reaction was incubated at room temperature. The reaction was stopped upon the addition of detection buffer containing streptavidin-XL665 (5 μL) and TK antibody-Eu3+(5 μL). After a 60 min incubation at room temperature, the fluorescence at 665 nm and 620 nm was read on an Envision microplate reader (Perkin Elmer).
(§3) Kinase activity normalized to DMSO (100% activity) and reference compound at 1 μM and (0% activity) was calculated using the fluorescence ratio […]. IC50 values were calculated by nonlinear regression analysis using a 4-parameter logistic curve fit in ActivityBase XE (IDBS).
Example C-1: Human Mer (residues R557-E882 with H628Q and R794A, 0.7 nM) was incubated with 8 mM MOPS pH 7.0, 0.2 mM EDTA, 30 mM NaCl, 250 μM GGMEDIYFEFMGGKKK (SEQ ID NO: 2), 10 mM magnesium acetate, and 10 μM [γ-^33P-ATP]. The reaction was initiated by the addition of the Mg/ATP mix. After incubation for 40 minutes at room temperature, the reaction was stopped by the addition of phosphoric acid to a concentration of 0.5%. A reaction aliquot of 10 μL was then spotted onto a P30 filtermat and washed four times for 4 minutes in 0.425% phosphoric acid and once in methanol prior to drying and scintillation counting. Incorporated ^33P was measured using the Wallac Microbeta scintillation counter (Perkin Elmer).
Example C-2: Human MER (residues 528-999; CarnaBio, 1 ng/well) was also incubated with enzymatic buffer (Cisbio) supplemented with 5 mM MgCl2 and 1 mM DTT. The mixture was added to the pre-plated compounds. The reaction was initiated upon addition of ATP at Km (40 μM). The reaction was incubated at room temperature for 60 min and stopped upon the addition of SA-XL665 and TK-antibody both diluted in EDTA-containing kinase detection buffer (Cisbio). The kinase activity was calculated as stated above and the IC50 values were reported.
On the technique in general: TR-FRET usually uses a lanthanide donor and a delayed reading to cut background.

The target in another experiment is T2, Human Axl (Homo sapiens, UniProt P30530).
T2 construct: Human AXL (residues 464-885)
T2 sequence (P30530 1-894 Q764R): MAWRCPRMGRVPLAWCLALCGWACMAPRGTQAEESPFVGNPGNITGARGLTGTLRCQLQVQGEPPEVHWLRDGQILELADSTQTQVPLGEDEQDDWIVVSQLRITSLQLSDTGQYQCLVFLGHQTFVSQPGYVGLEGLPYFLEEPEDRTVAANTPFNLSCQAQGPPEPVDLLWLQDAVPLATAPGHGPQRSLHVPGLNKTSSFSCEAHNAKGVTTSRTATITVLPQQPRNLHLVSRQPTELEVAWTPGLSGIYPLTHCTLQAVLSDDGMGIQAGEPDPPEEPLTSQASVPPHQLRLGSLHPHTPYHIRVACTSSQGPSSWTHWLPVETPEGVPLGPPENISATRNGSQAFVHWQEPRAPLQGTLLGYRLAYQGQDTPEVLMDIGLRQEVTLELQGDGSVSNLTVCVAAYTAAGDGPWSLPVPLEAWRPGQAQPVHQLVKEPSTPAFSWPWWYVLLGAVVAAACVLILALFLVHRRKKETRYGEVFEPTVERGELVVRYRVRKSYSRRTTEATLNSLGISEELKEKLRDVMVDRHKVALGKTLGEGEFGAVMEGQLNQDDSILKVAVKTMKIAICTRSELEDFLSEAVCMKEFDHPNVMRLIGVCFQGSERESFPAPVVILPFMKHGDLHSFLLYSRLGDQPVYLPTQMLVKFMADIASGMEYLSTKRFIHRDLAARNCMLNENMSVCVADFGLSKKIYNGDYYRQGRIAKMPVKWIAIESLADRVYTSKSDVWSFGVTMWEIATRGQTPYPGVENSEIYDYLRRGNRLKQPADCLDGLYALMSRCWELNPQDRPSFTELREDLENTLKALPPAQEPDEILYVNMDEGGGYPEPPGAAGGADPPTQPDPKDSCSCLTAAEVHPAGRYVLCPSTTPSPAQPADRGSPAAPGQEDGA
The experiment in a line: Human AXL kinase assay (33P radiometric / HTRF KinEase). The note with it: protocols of Examples A-1 and/or A-2. As to the method:
as §1, §2, §3
(§4) Example A-1: Human Axl (residues H473-A894 with Q764R, 161 nM) was incubated with 8 mM MOPS pH 7.0, 0.2 mM EDTA, 250 μM KKSRGDYMTMQIG (SEQ ID NO:1), 10 mM magnesium acetate and 10 μM [γ-^33P-ATP]. The reaction was initiated by the addition of the Mg/ATP mix. After incubation for 40 minutes at room temperature, the reaction was stopped by the addition of phosphoric acid to a concentration of 0.5%. A reaction aliquot of 10 μL was then spotted onto a P30 filtermat and washed four times for 4 minutes in 0.425% phosphoric acid and once in methanol prior to drying and scintillation counting. Incorporated ^33P was measured using the Wallac Microbeta scintillation counter (Perkin Elmer).
Example A-2: Human AXL (residues 464-885; CarnaBio, 1 ng/well) was also incubated with enzymatic buffer (Cisbio) supplemented with 5 mM MgCl2, 1 mM DTT, and Supplemental Enzymatic Buffer (SEB; Cisbio). The mixture was added to the pre-plated compounds. The reaction was initiated upon addition of ATP at Km (1.0 μM). The reaction was incubated at room temperature for 50 min and stopped upon the addition of SA-XL665 and TK-antibody both diluted in EDTA-containing kinase detection buffer (Cisbio). The kinase activity was calculated as stated above and the IC50 values were reported.

A further experiment deals with T3, Human Met (Homo sapiens, UniProt P08581).
T3 construct: Human MET (residues 956-1390)
The experiment in a line: Human Met kinase assay (33P radiometric / HTRF KinEase). The note with it: protocols of Examples D-1 and/or D-2; read-out: c-Met IC50. The procedure: as §1, §2, §3
Example D-1: Human Met (residues R974-S1390 with A1209G and V1290L, 3.4 nM) was incubated with 8 mM MOPS pH 7.0, 0.2 mM EDTA, 250 μM KKKGQEEEYVFIE (SEQ ID NO:3), 1 mM sodium orthovanadate, 5 mM […], 10 mM magnesium acetate, and 10 μM [γ-^33P-ATP]. The reaction was initiated by the addition of the Mg/ATP mix. After incubation for 40 minutes at room temperature, the reaction was stopped by the addition of phosphoric acid to a concentration of 0.5%. A reaction aliquot of 10 μL was then spotted onto a P30 filtermat and washed four times for 4 minutes in 0.425% phosphoric acid and once in methanol prior to drying and scintillation counting. Incorporated ^33P was measured using the Wallac Microbeta scintillation counter (Perkin Elmer).
Example D-2: Human MET (residues 956-1390; CarnaBio, 0.1 ng/well) was also incubated with enzymatic buffer (Cisbio) supplemented with 5 mM MgCl2, 1 mM DTT and 1 mM MnCl2. The mixture was added to the pre-plated compounds. The reaction was initiated upon addition of ATP at Km (3.0 μM). The reaction was incubated at room temperature for 40 min and stopped upon the addition of SA-XL665 and TK-antibody both diluted in EDTA-containing kinase detection buffer (Cisbio). The kinase activity was calculated as stated above and the IC50 values were reported.

For a further experiment, the target named is T4, Human KDR (Homo sapiens, UniProt P35968).
T4 construct: Human KDR (residues K790-V1356, 55 nM); purchased Eurofins Pharma Discovery Services UK Limited (KinaseProfiler, B-1) and/or CarnaBio (B-2)
The experiment in a line: Human KDR kinase assay (33P radiometric / HTRF KinEase). The following applies: protocols of Examples B-1 and/or B-2. As to the method: as §1, §2, §3
as §4, with “B-1:” for “A-1:”, “KDR” for “Axl”, “K790-V1356, 55” for “H473-A894 with Q764R, 161”, “0.33 mg/mL myelin basic protein,” for “250 μM KKSRGDYMTMQIG (SEQ ID NO:1),”, “acetate,” for “acetate”
Example B-2: Human KDR (residues 790-1356; CarnaBio, 0.1 ng/well) was also incubated with enzymatic buffer (Cisbio) supplemented with 5 mM MgCl2, 1 mM MnCl2, and 1 mM DTT. The mixture was added to the pre-plated compounds. The reaction was initiated upon addition of ATP at Km (4.0 μM). The reaction was incubated at room temperature for 40 min and stopped upon the addition of SA-XL665 and TK-antibody both diluted in EDTA-containing kinase detection buffer (Cisbio). The kinase activity was calculated as stated above and the IC50 values were reported.

pIC50: −log10 of the molar value.

T3 sequence (P08581 974-1390 limits assumed): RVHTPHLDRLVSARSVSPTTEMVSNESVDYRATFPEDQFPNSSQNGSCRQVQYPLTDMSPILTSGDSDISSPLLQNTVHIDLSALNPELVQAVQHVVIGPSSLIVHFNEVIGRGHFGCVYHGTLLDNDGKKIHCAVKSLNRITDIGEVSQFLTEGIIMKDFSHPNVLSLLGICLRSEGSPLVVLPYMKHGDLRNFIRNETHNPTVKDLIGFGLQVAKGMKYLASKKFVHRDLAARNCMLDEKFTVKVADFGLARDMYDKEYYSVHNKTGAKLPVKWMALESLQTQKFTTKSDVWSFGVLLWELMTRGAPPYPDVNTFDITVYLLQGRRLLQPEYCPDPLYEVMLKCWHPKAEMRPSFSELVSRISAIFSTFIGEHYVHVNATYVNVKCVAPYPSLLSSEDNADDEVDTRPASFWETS
T4 sequence (P35968 790-1356): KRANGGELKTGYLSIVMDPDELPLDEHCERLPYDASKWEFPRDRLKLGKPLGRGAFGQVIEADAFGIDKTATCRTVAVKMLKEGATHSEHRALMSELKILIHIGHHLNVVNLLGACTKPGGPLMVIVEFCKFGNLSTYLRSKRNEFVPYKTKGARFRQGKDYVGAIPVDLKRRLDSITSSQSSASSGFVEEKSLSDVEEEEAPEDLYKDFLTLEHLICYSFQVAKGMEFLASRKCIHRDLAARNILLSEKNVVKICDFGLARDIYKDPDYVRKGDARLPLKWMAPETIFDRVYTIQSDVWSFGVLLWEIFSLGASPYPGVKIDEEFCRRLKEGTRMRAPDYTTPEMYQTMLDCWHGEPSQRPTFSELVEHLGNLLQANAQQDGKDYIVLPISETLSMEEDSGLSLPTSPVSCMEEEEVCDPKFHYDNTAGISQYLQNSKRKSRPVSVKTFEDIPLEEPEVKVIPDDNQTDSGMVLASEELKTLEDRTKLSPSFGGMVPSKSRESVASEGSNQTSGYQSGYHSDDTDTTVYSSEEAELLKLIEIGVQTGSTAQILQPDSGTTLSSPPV

A word on the pIC50: it is the negative decadic logarithm of the IC50, by convention in mol/L. With `COCCOc1cnc2c(Oc3ccc(NC(=O)c4c(C)nc(C)c(C5=CCCC5)c4O)cc3F)ccnc2c1` [Compound 101, 5-(Cyclopenten-1-yl)-N-[3-fluoro-4-[[7-(2-methoxyethoxy)-1,5-naphthyridin-4-yl]oxy]phenyl]-4-hydroxy-2,6-dimethylpyridine-3-carboxamide], the pIC50 on Human Mer and against Human Axl was not below 7.00 throughout.
Regarding `COc1cc2nccc(Oc3ccc(NC(=O)c4c5n(cc(C6=CCCC6)c4=O)CCOC5)cc3F)c2nc1OC` [Compound G1-1, 7-(Cyclopenten-1-yl)-N-[4-[(6,7-dimethoxy-1,5-naphthyridin-4-yl)oxy]-3-fluorophenyl]-8-oxo-3,4-dihydro-1H-pyrido[2,1-c][1,4]oxazine-9-carboxamide], the pIC50 on Human Met is not below 7.00; at Human KDR, 6.52 to 7.00; at Human Mer it was not below 7.00.
For the molecule `COc1cc2nccc(Oc3ccc(NC(=O)c4c5n(cc(C6=CCCC6)c4=O)CCOC5)cc3)c2nc1OC` [Compound G1-6, 7-(Cyclopenten-1-yl)-N-[4-[(6,7-dimethoxy-1,5-naphthyridin-4-yl)oxy]phenyl]-8-oxo-3,4-dihydro-1H-pyrido[2,1-c][1,4]oxazine-9-carboxamide], the pIC50 on Human Met is not below 7.00; against Human KDR, less than 6.52; against Human Mer, not below 7.00.
As to `COc1cc2nccc(Oc3ccc(NC(=O)c4c5n(cc(C6=CCOCC6)c4=O)CCOC5)cc3F)c2nc1OC` [Compound G1-7, 7-(3,6-Dihydro-2H-pyran-4-yl)-N-[4-[(6,7-dimethoxy-1,5-naphthyridin-4-yl)oxy]-3-fluorophenyl]-8-oxo-3,4-dihydro-1H-pyrido[2,1-c][1,4]oxazine-9-carboxamide], the pIC50 on Human Met was not below 7.00; against Human KDR, less than 6.52; against Human Mer it was not below 7.00.

The record behind these values is US20240158393A1, “PYRIDONE COMPOUNDS AND METHODS OF USE” (Exelixis, Inc., priority 2021, published 2024).
